The values that follow come from patent US7410974B2, “Halogenated Quinazolinyl nitrofurans as antibacterial agents” (Ulysses Pharmaceutical Products, Inc., priority 2003, dated 2008).

For orientation: solubility means the dissolved amount per volume that the medium holds.

The subject of one series is C. jejuni ATCC 33291. The series can be described thus: MIC broth microdilution (NCCLS), fastidious bacteria. The series is classed as cell-based. The conditions noted are these: Campylobacter jejuni, ATCC33291; C. jejuni ATCC 33291; MHBCA with 2% laked horse blood, 5% CO2; read-out: MIC. In a few lines: (§1)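 NCCLS broth microdilution; inoculum 10^5-10^6 CFU/ml; 2-fold serial dilutions; 35° C, 24 h; A650 plus visual read. Media: MHBCA (S. saprophyticus, E. faecium), MHBCA + 2% laked horse blood (Listeria), HTM (Haemophilus), the last two under 5% CO2.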

The next series deals with H. influenzae ATCC 49247. The series is described as above. The conditions noted are these: Haemophilus influenzae, ATCC49247, HTM, 5% CO2. The series is classed as cell-based. In a few lines:
as §1

For another series, the system named is H. influenzae ATCC 49766. The description is as above. The series is classed as cell-based. The conditions noted are these: Haemophilus influenzae, ATCC49766, HTM, 5% CO2. The gist of the method: as §1
Series [1] has as its system L. monocytogenes ATCC 13932. The description is as above. Particulars: Listeria monocytogenes, ATCC13932, MHBCA with 2% laked horse blood, 5% CO2. Type of series: cell-based. In a few lines:
as §1

A further series relates to E. faecium VanA. The series can be described thus: MIC broth microdilution, antibiotic resistant strain panel. Type of series: cell-based. Particulars: Enterococcus faecium; multi-resistant E. faecium VanA; read-out: MIC. The gist of the method: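 Cultures grew 24 h at 35° C in MHBCA from a 10^5-10^6 CFU/ml inoculum against 2-fold compound dilutions, following NCCLS guidance.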
A general note: Dilution methods test growth across graded concentrations, often in twofold steps.

Series [2] concerns bacteria of the primary strain panel. The series can be described thus: MBCs compared with MICs over the strain panels. Type of series: cell-based. The conditions noted are these: most of the time, over tested strains. How it is done: Minimal Inhibitory Concentration (MIC) Determination. Bacteria (primary strain panel, TABLE 1). Susceptibility tests were performed following the recommendations from the National Committee for Clinical Standards (NCCLS). The MICs were determined by a broth microdilution technique using a final volume of 100 μl of cation-adjusted Mueller Hinton Broth (MHBCA) and a bacterial inoculum of 10^5-10^6 Colony Forming Units (CFU)/ml. The inocula were verified and precisely determined by applying 10-μl drops of 10-fold dilutions onto Triptic Soy Agar plates. The CFU were counted after an incubation of 24 h at 35° C. Any experiment showing an inoculum that was more or less than 10^5-10^6 CFU/ml was rejected. Control antibiotics and test compounds were prepared at a concentration equivalent to 2-fold the highest desired final concentration. […] Microtiter plates were incubated during 24 h at 35° C. and growth was recorded by using a microtiterplate reader at 650 nm as well as by visual observation. […]
Minimal Bactericidal Concentration (MBC). After the microtiter plates were read for the determination of the MIC, a 10-μl sample of each clear well (at least 5 wells without visible growth) was applied onto TSA plates for viable counts determination.
Petri dishes were incubated at 35° C. for exactly 24 h and bacterial colonies were counted.

Another series relates to S. aureus ATCC 29213. The series can be described thus: Time-kill curves. Particulars: at their respective MIC or a multiple of the MIC. The series is classed as cell-based, Staphylococcus aureus. The procedure:
(§2) Time-kill curves. The bactericidal action of compounds was also evaluated over time (time-kill curve experiments). A bacterial inoculum of 1×10^5-1×10^7 Colony Forming Units (CFU)/ml was prepared. The inocula were verified and precisely determined by applying 10-μl drops of 10-fold dilutions onto Triptic Soy Agar plates. The CFU were counted after an incubation of 24 h at 35° C. Any experiment showing an inoculum that was more or less than the desired range of CFU/ml was rejected. Time-kill curve experiments were performed in 30 ml of MHB placed in 50-ml shaking flasks over a period of 24 hours. Test compounds and control antibiotics were added at time 0 hour and, at each time point, a sample was removed from flasks and the CFU determined by plate counts as described above. CFU from compound-treated cultures were compared to CFU collected from the control flask without antibiotic. Test compounds and control antibiotics were assayed at the MIC or a multiple of the MIC as determined by a broth microdilution technique as described above.

The next series concerns S. aureus MRSA COL. The series can be described thus: Time-kill curves. Type of series: cell-based, Staphylococcus aureus. Particulars: data not shown. How it is done: as §2
The subject of the next series is E. coli ATCC 25922. The series can be described thus: Time-kill curves. The series is classed as cell-based, Escherichia coli. How it is done:
as §2

Another series has as its system S. aureus strain Newman. The series can be described thus: S. aureus model of systemic infection in the mouse. The conditions noted are these: CD-1 female mice, i.p. 10^7 CFU S. aureus Newman; oral gavage 15 mg/kg at 1 hour post-infection; kidneys 5 hours after inoculation; FIG. 3. Type of series: in vivo, Staphylococcus aureus. How it is done: In vivo efficacy. The antimicrobial activity of compounds was also evaluated in a S. aureus model of systemic infection in the mouse. To produce the systemic infection, CD-1 female mice (20 g) were injected intra-peritoneally with 10^7 CFU of S. aureus strain Newman suspended in 0.5 ml of endotoxin-free PBS containing 5% mucin (w/v). The compounds were administrated by oral gavage (15 mg/kg) at 1 hour post-infection and kidneys harvested and pooled, for each animal, 5 hours after bacterial inoculation. Tissues were homogenized in PBS and homogenates serially diluted and plated for CFU determination.

Another series can be described thus: Solubility in water. Particulars: read-out: solubility in water (no visible particles). The series is classed as physicochemical. The procedure:
Solubility of Compounds V and XV. The extent of solubility of compounds was evaluated in water.

Structures are written as SMILES. In brackets after ≈: the same amount, converted by molar mass.

`O=[N+]([O-])c1ccc(C=Cc2nc(Nc3ccc(O)cc3)c3cc(F)ccc3n2)o1` [Compound V, 6-fluoro-2-[2-(5-nitro-2-furyl)vinyl]-4-(p-hydroxyanilino)-quinazoline]: the MIC in the series with C. jejuni ATCC 33291 is 0.016 µg/mL (≈ 0.0408 µM); in the series with H. influenzae ATCC 49247 it was 0.03 µg/mL (≈ 0.0765 µM); with H. influenzae ATCC 49766, 0.06 µg/mL (≈ 0.153 µM); in [1], 0.03 to 0.25 µg/mL (≈ 0.0765 to 0.637 µM); with E. faecium VanA, 0.03 µg/mL (≈ 0.0765 µM). The “MBCs relative to the MICs” value in [2] is listed as “equal to or only 2 to 4-fold higher than the MICs”. Besides, the “bactericidal action compared with ciprofloxacin (time-kill)” value is listed as “superior to ciprofloxacin” in the series on S. aureus ATCC 29213 and “superior to ciprofloxacin” in the series on E. coli ATCC 25922 (E. coli, at their respective MIC or a multiple of the MIC). Moreover, the “bactericidal action (time-kill)” value in the series with S. aureus MRSA COL is listed as “similarly bactericidal”. The “time to strongly bactericidal action (time-kill)” value in the series with E. coli ATCC 25922 (E. coli ATCC 25922, at the MIC or a multiple of the MIC, FIG. 2) is at most 2 h. Moreover, the “viable bacteria in the kidneys” value in the series with S. aureus strain Newman is on record as “reduced significantly”. In the series “Solubility in water”, the solubility was determined as 250 µg/mL (≈ 637 µM).
